{
  "source": "patent US20100035796A1",
  "about": "(priority 2005, published 2010)",
  "key": {"estrogen receptor": {"test_system": "estrogen receptor", "test": "Activity on the estrogen receptor in ERE-luc mice, photometric analysis with CCD camera", "assay_type": "in vivo", "experimental": "(§1) The activity of two compounds of the invention, 17α-(5-acetoxy)pent-1-inyl-1,3,5(10)-estratriene-3,17β-diol and 17α-(5-propanoyl-oxy)pent-1-inyl-1,3,5(10)-estratriene-3,170-diol, was determined in a cell culture and in a transgenic animal model using female adult ERE-luc mice which were ovariectomised or sham-operated three weeks before the experiment. This model allows the anti-inflammatory activity, effect on the estrogen receptor and wound-healing activity to be evaluated.\n(§2) Each of the two test compounds was dissolved immediately before use in 99% ethanol, and a 10 mM mother solution was prepared. The successive dilutions were performed in saline solution (0.9% NaCl in bidistilled water).\nThe activity on the estrogen receptor was evaluated by photometric analysis with CCD chamber after 0, 24, 48 and 72 hours. The animals were then killed, and the tissue surrounding the wound was removed."}, "steroid sulphatase": {"target": "T1, steroid sulphatase (Homo sapiens, UniProt P08842)", "T1 sequence (P08842 22-583)": "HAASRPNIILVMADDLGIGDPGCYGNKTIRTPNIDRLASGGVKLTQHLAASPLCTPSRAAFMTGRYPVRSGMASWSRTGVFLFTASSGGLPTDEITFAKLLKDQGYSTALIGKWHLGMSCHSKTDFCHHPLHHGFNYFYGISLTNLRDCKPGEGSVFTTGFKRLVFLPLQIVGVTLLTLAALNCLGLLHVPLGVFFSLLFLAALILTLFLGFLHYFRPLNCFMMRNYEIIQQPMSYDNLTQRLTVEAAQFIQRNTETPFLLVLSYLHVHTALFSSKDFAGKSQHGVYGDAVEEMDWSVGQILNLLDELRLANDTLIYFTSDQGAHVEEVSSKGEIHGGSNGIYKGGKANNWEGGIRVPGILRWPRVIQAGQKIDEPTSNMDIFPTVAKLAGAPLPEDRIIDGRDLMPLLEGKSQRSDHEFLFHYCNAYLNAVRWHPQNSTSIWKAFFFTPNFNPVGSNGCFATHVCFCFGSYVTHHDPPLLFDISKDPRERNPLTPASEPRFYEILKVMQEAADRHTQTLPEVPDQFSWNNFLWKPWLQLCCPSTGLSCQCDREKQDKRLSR", "conditions": "R. P. Boivin et al., J. Med. Chem. 2000; cited from earlier work"}, "MIF": {"test_system": "MIF", "test": "Expression of inflammation markers in the wound model (second study): MIF", "assay_type": "in vivo, mice"}, "TGF-β": {"test_system": "TGF-β", "test": "Expression of inflammation markers in the wound model (second study): TGF-β", "assay_type": "in vivo, mice"}, "CD74": {"test_system": "CD74", "test": "Expression of inflammation markers in the wound model (second study): CD74", "assay_type": "in vivo, mice"}, "ERα": {"test_system": "ERα", "test": "Expression of estrogen receptors in ovariectomised animals: ERα-positive cells", "assay_type": "in vivo, mice"}, "cutaneous wound": {"test_system": "cutaneous wound", "test": "Wound-healing activity: histological sections of the tissue surrounding the wound", "assay_type": "in vivo, mice", "experimental": "as §1, §2\nHistological sections were prepared from the tissue surrounding the wound to evaluate the wound-healing activity. For the histological preparation, the tissue was fixed in 10% formalin (in buffer solution) and embedded in paraffin wax. The sections were stained with haematoxylin-eosin to evaluate the state of inflammation and wound-healing. The sections were also used to quantify the state of infiltration of the macrophages 4 days after the wound, using anti-Mac2 antibodies, and for further staining designed to detect the state of wound-healing and characterise the cells present in the wound area."}, "ERβ": {"test_system": "ERβ", "test": "Expression of estrogen receptors in ovariectomised animals: ERβ-positive cells", "assay_type": "in vivo, mice"}, "wound": {"test_system": "wound", "conditions": "cited from earlier work; for wound-healing on topical use: used topically, Ashcroft et al. 2003b"}, "sun-damaged skin": {"test_system": "sun-damaged skin", "conditions": "hairless mice; Gendimenico et al. 2002; cited from earlier work"}, "IL-6": {"test_system": "IL-6", "test": "Expression of inflammation markers in the wound model (second study): IL-6", "assay_type": "in vivo, mice"}},
  "data": [
    {"smiles": "CCC(=O)OCCCC#CC1(O)CCC2C3CCc4cc(O)ccc4C3CCC21C", "note": "(stereo not drawn) [Example 8, 17α-(5-Propanoyloxy)pent-1-ynyl-1,3,5(10)-estratrien-3,17β-diol]", "values": [
      {"measurement": "estrogenic effect in areas other than the area of administration (systemic activity)", "setting": "estrogen receptor; CCD camera, intradermal in loco", "value": "a slight systemic activity"}
    ]},
    {"smiles": "CC12CCC3c4ccc(O)cc4CCC3C1CCC2(O)C#CCO", "note": "(stereo not drawn) [17α-(3-hydroxypropin-1-yl)estradiol]", "values": [
      {"measurement": "inhibitory effect on steroid sulphatase", "setting": "steroid sulphatase", "value": "very low"}
    ]},
    {"smiles": "CC(=O)OCCCC#C[C@]1(O)CC[C@H]2[C@@H]3CCc4cc(O)ccc4[C@H]3CC[C@@]21C", "note": "[Example 7, 17α-(5-acetoxy)pent-1-ynyl-1,3,5(10)-estratrien-3,17β-diol]", "values": [
      {"measurement": "expression of MIF", "setting": "MIF", "value": "significantly inhibited the expression"},
      {"measurement": "estrogenic effect in areas other than the area of administration (systemic activity)", "setting": "estrogen receptor; mouse, in vivo", "value": "does not have a detectable estrogenic effect"},
      {"measurement": "uterotrophic activity", "setting": "estrogen receptor; mouse, in vivo", "value": "does not present uterotrophic activity"},
      {"measurement": "expression of TGF-β", "setting": "TGF-β", "value": "significantly inhibited the expression"},
      {"measurement": "expression of CD74", "setting": "CD74", "value": "significantly inhibited the expression"},
      {"measurement": "number of cells that test positive for the α estrogen receptor", "setting": "ERα", "value": "does not act on the number of cells that test positive for the α receptor"},
      {"measurement": "efficacy of the wound-healing effect", "setting": "cutaneous wound; second study, 5 animals per group, compared with estradiol", "value": "statistically similar to that of the natural hormone"},
      {"measurement": "effect on the wound-healing process", "setting": "cutaneous wound; summary statement", "value": "marked effect on the wound-healing process"},
      {"measurement": "number of cells that express the β estrogen receptor", "setting": "ERβ", "value": "does not significantly reduce the number of cells that express the β receptor"}
    ]},
    {"smiles": "C[C@]12CC[C@@H]3c4ccc(O)cc4CC[C@H]3[C@@H]1C[C@@H](O)[C@@H]2O", "note": "[estriol]", "values": [
      {"measurement": "activity relative to estradiol", "setting": "wound; Shah et al. 2001", "value": "much less active than estradiol"},
      {"measurement": "wound-healing on topical use", "setting": "wound", "value": "promote wound-healing"}
    ]},
    {"smiles": "C[C@]12CC[C@@H]3c4ccc(O)cc4CC[C@H]3[C@@H]1CC[C@@]2(O)C#CCBr", "note": "[17α-(3-bromopropin-1-yl)estradiol]", "values": [
      {"measurement": "inhibitory effect on steroid sulphatase", "setting": "steroid sulphatase", "value": "high"}
    ]},
    {"smiles": "C[C@]12CC[C@@H]3c4ccc(O)cc4CC[C@H]3[C@@H]1CC[C@H]2O", "note": "[17α-estradiol]", "values": [
      {"measurement": "repair of sun-damaged skin", "setting": "sun-damaged skin", "value": "repair the sun-damaged skin of hairless mice"}
    ]},
    {"smiles": "C[C@]12CC[C@@H]3c4ccc(O)cc4CC[C@H]3[C@@H]1CC[C@@H]2O", "note": "[estradiol, 17beta-estradiol]", "values": [
      {"measurement": "expression of MIF", "setting": "MIF", "value": "limit the expression of all the inflammation proteins studied"},
      {"measurement": "wound-healing on topical use", "setting": "wound", "value": "promote wound-healing"},
      {"measurement": "expression of TGF-β", "setting": "TGF-β", "value": "limit the expression of all the inflammation proteins studied"},
      {"measurement": "expression of CD74", "setting": "CD74", "value": "limit the expression of all the inflammation proteins studied"},
      {"measurement": "expression of IL-6", "setting": "IL-6", "value": "limit the expression of all the inflammation proteins studied"},
      {"measurement": "repair of sun-damaged skin", "setting": "sun-damaged skin", "value": "repair the sun-damaged skin of hairless mice"},
      {"measurement": "number of cells that express the β estrogen receptor", "setting": "ERβ", "value": "increases the number of cells that test positive for both receptors"}
    ]}
  ]
}
